This note sets out measurements from ChEMBL document CHEMBL1201862, “PubChem BioAssay data set” (2004).

Molecules are shown by their SMILES. Calls of active or inactive are those of the source.

The AC50 is the concentration giving half of the maximal activity seen. For orientation: IC50 means the concentration at which inhibition is half-maximal. By EC50 is commonly meant the midpoint of the concentration-response curve.

For series [1], the target named is T1, Cytochrome P450 1A2 (Homo sapiens, UniProt P05177).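 Note: PubChem cytochrome P450 panel assay, CYP1A2 panel member.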
T1 sequence (P05177 whole entry): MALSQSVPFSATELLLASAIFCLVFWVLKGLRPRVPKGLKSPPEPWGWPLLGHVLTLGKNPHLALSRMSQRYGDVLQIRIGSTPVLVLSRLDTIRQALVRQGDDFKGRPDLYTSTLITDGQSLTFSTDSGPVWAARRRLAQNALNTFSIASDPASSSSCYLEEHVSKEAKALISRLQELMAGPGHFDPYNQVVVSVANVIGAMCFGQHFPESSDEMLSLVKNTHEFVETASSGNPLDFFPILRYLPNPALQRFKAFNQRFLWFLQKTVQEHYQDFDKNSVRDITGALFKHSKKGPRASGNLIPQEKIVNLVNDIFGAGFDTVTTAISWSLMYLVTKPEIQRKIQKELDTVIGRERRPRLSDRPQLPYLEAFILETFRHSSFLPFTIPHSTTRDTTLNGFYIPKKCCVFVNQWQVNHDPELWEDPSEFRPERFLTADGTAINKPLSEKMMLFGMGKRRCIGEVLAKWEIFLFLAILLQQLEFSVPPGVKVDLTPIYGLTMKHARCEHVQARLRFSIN

Series [2] deals with T1, Cytochrome P450 1A2. The source holds these as a separate data set.
In series [3] the target is T2, Sentrin-specific protease 8 (Homo sapiens, UniProt Q96LD8).
T2 sequence (Q96LD8 whole entry): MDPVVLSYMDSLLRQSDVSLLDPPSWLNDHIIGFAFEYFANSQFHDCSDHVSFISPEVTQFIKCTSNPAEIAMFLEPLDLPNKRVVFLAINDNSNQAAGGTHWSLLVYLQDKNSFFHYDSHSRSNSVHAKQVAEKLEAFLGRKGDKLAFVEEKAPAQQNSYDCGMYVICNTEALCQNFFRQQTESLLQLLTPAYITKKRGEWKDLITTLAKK
Nature of the series: inhibition of sentrin protease 8 – biochemical, luminescence, set 2, SAR follow-up (AID 588601). The format is functional.

The target in series [4] is T3, Caspase-3 (Homo sapiens, UniProt P42574).
T3 sequence (P42574 whole entry): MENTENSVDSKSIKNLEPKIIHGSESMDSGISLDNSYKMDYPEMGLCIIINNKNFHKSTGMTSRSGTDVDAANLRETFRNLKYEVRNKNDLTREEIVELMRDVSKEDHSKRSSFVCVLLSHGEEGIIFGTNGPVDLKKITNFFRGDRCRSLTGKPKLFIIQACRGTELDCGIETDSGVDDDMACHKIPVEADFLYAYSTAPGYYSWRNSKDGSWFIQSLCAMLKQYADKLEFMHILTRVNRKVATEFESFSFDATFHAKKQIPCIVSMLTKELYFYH
Nature of the series: inhibition of recombinant caspase-3 activity – biochemical, luminescence, set 2, selectivity assay for SENP protease inhibitor project, SAR follow-up (AID 588599). The format is functional.

Series [5] deals with T4, Sentrin-specific protease 7 (Homo sapiens, UniProt Q9BQF6).
T4 sequence (Q9BQF6 whole entry): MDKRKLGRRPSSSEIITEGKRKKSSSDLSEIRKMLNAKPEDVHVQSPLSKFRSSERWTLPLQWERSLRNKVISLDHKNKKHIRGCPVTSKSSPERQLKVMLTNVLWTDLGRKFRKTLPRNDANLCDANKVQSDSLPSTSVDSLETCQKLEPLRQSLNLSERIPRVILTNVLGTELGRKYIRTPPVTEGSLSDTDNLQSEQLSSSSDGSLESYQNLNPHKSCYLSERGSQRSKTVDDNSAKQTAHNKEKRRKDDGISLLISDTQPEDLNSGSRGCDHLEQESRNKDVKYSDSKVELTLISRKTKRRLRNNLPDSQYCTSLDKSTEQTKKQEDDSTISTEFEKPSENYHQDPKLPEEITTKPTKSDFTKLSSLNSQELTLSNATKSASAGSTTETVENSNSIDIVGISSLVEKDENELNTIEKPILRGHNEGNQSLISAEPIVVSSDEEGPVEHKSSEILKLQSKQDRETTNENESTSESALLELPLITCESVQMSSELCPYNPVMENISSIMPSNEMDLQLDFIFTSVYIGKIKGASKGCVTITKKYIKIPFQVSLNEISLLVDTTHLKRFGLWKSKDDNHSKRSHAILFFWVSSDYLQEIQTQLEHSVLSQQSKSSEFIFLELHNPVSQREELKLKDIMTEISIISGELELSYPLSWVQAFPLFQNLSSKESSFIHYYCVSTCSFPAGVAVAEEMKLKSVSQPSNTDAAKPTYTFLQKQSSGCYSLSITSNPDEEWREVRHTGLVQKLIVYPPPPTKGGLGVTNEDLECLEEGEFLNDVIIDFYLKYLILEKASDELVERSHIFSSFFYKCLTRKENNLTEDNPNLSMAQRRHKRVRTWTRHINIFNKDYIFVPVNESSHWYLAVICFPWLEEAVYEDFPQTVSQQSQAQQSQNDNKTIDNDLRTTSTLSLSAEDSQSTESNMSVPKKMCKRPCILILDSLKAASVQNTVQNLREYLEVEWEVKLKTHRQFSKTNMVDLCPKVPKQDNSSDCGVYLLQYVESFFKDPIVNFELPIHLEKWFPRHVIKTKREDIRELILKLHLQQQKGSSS
Nature of the series: inhibition of human SENP7 cleavage activity – biochemical, luminescence, set 2, SAR follow-up (AID 588600). The series is classed as functional.

The target in series [6] is T5, Sentrin-specific protease 6 (Homo sapiens, UniProt Q9GZR1).
T5 sequence (Q9GZR1 whole entry): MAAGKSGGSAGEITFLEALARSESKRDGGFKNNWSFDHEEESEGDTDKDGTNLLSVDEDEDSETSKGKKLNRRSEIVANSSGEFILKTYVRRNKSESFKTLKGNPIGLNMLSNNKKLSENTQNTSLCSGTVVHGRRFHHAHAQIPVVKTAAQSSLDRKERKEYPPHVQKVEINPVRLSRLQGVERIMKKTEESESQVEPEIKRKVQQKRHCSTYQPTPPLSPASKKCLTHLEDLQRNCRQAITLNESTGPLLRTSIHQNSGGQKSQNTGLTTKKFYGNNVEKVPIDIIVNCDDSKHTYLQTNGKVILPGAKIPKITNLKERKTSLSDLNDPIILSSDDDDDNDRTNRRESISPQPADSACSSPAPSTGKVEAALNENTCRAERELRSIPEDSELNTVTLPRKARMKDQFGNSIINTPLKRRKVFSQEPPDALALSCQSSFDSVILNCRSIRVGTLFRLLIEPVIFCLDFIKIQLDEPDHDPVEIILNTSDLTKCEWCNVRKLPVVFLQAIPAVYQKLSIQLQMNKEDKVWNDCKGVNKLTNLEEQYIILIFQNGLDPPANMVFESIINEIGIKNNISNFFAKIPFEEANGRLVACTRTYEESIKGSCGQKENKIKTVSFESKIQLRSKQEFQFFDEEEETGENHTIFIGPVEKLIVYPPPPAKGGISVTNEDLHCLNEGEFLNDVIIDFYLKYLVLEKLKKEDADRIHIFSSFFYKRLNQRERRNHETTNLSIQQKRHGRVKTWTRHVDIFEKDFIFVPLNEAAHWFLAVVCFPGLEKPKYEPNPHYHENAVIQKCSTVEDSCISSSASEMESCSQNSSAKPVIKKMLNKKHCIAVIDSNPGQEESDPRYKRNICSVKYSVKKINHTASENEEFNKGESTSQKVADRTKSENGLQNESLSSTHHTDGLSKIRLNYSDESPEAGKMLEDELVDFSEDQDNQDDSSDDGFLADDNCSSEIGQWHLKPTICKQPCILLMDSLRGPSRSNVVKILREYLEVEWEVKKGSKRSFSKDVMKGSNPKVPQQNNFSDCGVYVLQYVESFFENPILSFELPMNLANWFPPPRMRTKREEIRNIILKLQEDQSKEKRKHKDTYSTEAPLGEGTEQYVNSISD
Nature of the series: inhibition of human SENP6 catalytic domain – biochemical, luminescence, set 2, SAR follow-up (AID 588598). The series is classed as functional.

The test system of series [7] is Escherichia coli. Nature of the series: microbe, parasite or virus in culture.
Series [8] deals with UDP-galactopyranose mutase (Mycobacterium tuberculosis, UniProt P9WIQ1). Nature of the series: Inhibitors of Mycobacterium tuberculosis UDP-galactopyranose mutase (UGM) enzyme Measured in Biochemical System Using Plate Reader - 2105-02_Inhibitor_Dose_CherryPick_Activity. [Related pubchem assays (depositor defined):AID504439].
Series [9] concerns HEK293. Nature of the series: cells. The following applies: Homo sapiens.
Series [10] has as its system HEK293. Nature of the series: cells. The settings on record: Homo sapiens. The source holds these as a separate data set.
Series [11] deals with Phospholipase A2 (Homo sapiens, UniProt P04054). The format is functional.
Series [12] deals with T6, Cysteine protease ATG4B (Homo sapiens, UniProt Q9Y4P1).
T6 sequence (Q9Y4P1 whole entry): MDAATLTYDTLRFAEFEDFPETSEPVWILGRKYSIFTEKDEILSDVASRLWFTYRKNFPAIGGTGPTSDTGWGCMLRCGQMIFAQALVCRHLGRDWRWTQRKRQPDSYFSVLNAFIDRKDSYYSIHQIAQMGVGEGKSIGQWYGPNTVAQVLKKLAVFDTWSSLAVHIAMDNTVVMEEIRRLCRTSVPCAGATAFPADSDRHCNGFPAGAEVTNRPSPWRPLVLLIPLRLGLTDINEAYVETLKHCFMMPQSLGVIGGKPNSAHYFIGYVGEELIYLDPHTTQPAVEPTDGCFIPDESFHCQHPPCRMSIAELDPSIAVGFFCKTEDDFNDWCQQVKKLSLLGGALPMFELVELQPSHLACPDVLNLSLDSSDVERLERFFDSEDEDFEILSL
The format is functional.

For series [13], the target named is T7, Zinc finger protein mex-5 (Caenorhabditis elegans, UniProt Q9XUB2).
T7 sequence (Q9XUB2 whole entry): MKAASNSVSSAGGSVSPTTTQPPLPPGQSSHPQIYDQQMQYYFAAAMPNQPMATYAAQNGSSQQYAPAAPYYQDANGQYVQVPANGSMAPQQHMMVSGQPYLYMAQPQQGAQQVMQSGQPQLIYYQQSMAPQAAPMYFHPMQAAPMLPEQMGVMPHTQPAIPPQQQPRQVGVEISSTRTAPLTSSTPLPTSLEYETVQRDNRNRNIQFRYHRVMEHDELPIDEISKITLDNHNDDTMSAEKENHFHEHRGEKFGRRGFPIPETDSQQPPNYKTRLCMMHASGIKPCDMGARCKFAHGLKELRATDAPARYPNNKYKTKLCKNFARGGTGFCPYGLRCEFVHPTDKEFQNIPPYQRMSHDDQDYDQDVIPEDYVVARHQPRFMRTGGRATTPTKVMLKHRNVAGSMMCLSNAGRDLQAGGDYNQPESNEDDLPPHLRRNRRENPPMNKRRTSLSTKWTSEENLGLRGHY
Nature of the series: potency of MEX-5 RNA-binding blockers – biochemical, C. elegans, fluorescence polarization, dose response (AID 1960). (In general: Polarisation of emitted light reports the rotation of a fluorescent probe.)

Series [14] addresses Glucose-6-phosphate 1-dehydrogenase (Homo sapiens, UniProt P11413). Nature of the series: inhibition of Homo sapiens G6PD, dose series – biochemical, fluorescence, selectivity assay for P. falciparum G6PD inhibitor project, dose response (AID 504792). The series is classed as functional.
In series [15] the target is T8, RNA-binding protein pos-1 (Caenorhabditis elegans, UniProt G5EF15).
T8 sequence (G5EF15 whole entry): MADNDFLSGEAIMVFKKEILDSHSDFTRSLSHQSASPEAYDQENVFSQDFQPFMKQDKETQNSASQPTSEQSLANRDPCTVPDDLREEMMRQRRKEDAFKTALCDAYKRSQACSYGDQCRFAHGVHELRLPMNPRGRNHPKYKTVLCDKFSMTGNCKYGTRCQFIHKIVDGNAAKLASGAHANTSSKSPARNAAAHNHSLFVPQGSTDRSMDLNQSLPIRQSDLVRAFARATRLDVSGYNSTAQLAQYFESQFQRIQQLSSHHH
Nature of the series: disruptors of C. elegans POS-1 RNA interaction – biochemical, fluorescence polarization, dose response (AID 1964).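 Note: purified POS-1 fused to maltose binding protein made in E. coli; potency of compounds blocking POS-1 binding to fluorescent RNA.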

Series [16] concerns the target Induced myeloid leukemia cell differentiation protein Mcl-1 (Homo sapiens, UniProt Q07820). The format is functional.
In series [17] the target is Dual specificity tyrosine-phosphorylation-regulated kinase 1A (Rattus norvegicus, UniProt Q63470). The series is classed as biochemical, Homo sapiens.

Sequence of Phospholipase A2 (P04054 whole entry): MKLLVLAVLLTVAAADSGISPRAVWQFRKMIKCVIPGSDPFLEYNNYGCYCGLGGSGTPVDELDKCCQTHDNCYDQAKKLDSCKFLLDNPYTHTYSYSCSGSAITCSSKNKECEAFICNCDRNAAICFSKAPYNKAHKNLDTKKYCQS
Sequence of Glucose-6-phosphate 1-dehydrogenase (P11413 whole entry): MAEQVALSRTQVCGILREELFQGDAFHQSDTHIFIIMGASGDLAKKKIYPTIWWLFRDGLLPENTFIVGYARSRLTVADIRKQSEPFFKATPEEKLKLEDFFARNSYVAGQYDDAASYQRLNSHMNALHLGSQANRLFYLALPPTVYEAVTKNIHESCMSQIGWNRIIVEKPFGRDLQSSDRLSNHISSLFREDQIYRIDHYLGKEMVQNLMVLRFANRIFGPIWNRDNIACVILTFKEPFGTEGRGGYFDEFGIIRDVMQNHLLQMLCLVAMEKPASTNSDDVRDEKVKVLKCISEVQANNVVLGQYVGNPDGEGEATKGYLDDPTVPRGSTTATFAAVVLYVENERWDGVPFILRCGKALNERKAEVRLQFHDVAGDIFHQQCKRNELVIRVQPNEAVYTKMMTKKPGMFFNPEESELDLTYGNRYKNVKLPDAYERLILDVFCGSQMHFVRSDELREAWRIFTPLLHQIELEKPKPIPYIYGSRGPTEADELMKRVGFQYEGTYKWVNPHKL
Sequence of UDP-galactopyranose mutase (P9WIQ1 whole entry): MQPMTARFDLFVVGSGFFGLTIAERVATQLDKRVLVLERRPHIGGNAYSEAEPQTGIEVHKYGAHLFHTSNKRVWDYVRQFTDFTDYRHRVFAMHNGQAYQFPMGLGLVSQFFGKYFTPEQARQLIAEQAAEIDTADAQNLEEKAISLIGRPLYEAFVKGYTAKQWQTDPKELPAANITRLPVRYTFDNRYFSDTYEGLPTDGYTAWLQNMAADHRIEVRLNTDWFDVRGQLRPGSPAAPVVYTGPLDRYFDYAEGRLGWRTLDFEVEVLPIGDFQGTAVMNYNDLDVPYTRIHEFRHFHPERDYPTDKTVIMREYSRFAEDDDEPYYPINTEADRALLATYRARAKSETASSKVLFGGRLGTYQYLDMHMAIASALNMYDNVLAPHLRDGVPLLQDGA
Sequence of Induced myeloid leukemia cell differentiation protein Mcl-1 (Q07820 whole entry): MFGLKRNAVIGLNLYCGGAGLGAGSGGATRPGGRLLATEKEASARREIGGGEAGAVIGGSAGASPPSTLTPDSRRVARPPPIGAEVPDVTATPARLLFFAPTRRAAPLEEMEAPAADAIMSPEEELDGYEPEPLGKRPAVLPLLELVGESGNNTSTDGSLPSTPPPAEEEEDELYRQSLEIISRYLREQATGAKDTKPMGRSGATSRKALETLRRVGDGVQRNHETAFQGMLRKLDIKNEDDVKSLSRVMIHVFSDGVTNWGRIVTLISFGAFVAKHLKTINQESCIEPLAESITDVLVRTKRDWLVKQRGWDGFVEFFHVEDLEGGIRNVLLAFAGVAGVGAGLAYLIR

On to `c1cncc([C@@H]2CCCCN2)c1` [ANABASINE], for which the values for the AC50 in [1] and in series [2] were 5.01 µM (inconclusive) and “inconclusive”, respectively.

Consider `O=C(Nc1nc2ccccc2s1)c1cccc(S(=O)(=O)N2CCN(c3ccccc3)CC2)c1`, for which the IC50 in series [3], in series [4], in [5] and in series [6] was > 99 µM (inactive) in each case.

For the compound `Cc1ccccc1C(=O)N1CCC(C(=O)Nc2ccccc2Cl)CC1`, the AC50 in series [7] is 27.8 µM (active).

For `Cc1nn(C)cc1N1C(=O)c2cccc3c(N)ccc(c23)C1=O`, the AC50 in [8] is 1.91 µM (active).

Take `CCn1c(SCc2ccccc2Cl)nc2nc3c(cc2c1=O)CCCC3`: the EC50 in [9] and in series [10] was > 59.6 µM (inactive) each time. The IC50 in [11] is 4.98 µM (active); in series [12], 12.5 µM (active).

In the case of `COc1cc(O)c(C(=O)O)c(-c2cc(O)c(O)cc2C)c1` [ALTENUSIN], the EC50 is > 300 µM (inconclusive) in [13] and 31 µM (active) in series [15]. The IC50 in series [14] was 31 µM (inactive); in series [16] it was 4.15 µM (active).

Take `Oc1ccc(-c2nc3ccccc3nc2-c2ccc(O)cc2O)c(O)c1`: the concentration at half-maximal activity (AC50) in series [17] is 3.12 µM (active).

`Cn1c(C(=O)NC2CC2)cc2c(=O)n(C)c3ccccc3c21`: the AC50 in series [17] was 15.5 µM (active).

In the case of `COc1ccc(S(=O)(=O)NCc2ccco2)c2ccccc12`, the AC50 in [7] was 28.5 µM (active).
